According to PubChem BioAssay AID1259411 (Chemical Carcinogenesis Research Information System (CCRIS), 2018):
Calls of active or inactive are those of the source. How the calls were made is not given here.

Test system: rodent carcinogenicity bioassays, tumor incidence
Assay: CCRIS carcinogenicity studies
Summary of the method: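 Archive of carcinogenicity, mutagenicity, tumor promotion and tumor inhibition results drawn from journals, NCI reports and other sources, expert-reviewed; covers 1985-2011 and is no longer updated.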

c1ccc2c(c1)cc1ccc3cccc4ccc2c1c34
carcinogen call (Species: FISH, Strain/Sex: MT. SHASTA RAINBOW TROUT/MALE, FEMALE, Route: TRANSCHORIONIC INJECTION, Dose: 0, 0.09, 0.9, 9 UG IN DMSO ADMINISTERED IN OVO APPROXIMATELY 2 DAYS PRIOR TO HATCHING (STUDY DURATION: 1 YR), Dose: 0, 0.09, 0.9, 9 UG IN DMSO ADMINISTERED IN OVO APPROXIMATELY 2 DAYS PRIOR TO HATCHING (STUDY DURATION: 1 YR)): inactive; negative | carcinogen call (Species: FISH, Strain/Sex: MT. SHASTA RAINBOW TROUT/MALE, FEMALE, Route: TRANSCHORIONIC INJECTION, Dose: 0, 4.5, 9, 18 UG IN DMSO ADMINISTERED IN OVO APPROXIMATELY 2 DAYS PRIOR TO HATCHING, Dose: 0, 4.5, 9, 18 UG IN DMSO ADMINISTERED IN OVO APPROXIMATELY 2 DAYS PRIOR TO HATCHING, Tumor Site: Type of Lesion: LIVER: TUMOR): active; positive | carcinogen call (Species: FISH, Strain/Sex: RAINBOW TROUT/MALE, FEMALE, Route: INTRAPERITONEAL, Dose: 0, 1 MG IN 0.4 ML PROPYLENE GLYCOL 1/MO FOR 12 MO BEGINNING AT 10 MO OF AGE (STUDY DURATION: 18 MO), Tumor Site: Type of Lesion: LIVER: CARCINOMA): active; positive | carcinogen call (Species: FISH, Strain/Sex: RAINBOW TROUT/MALE, FEMALE, Route: ORAL, Dose: 0, 1000 PPM IN DIET FOR 18 MO (STUDY DURATION: 18 MO), Tumor Site: Type of Lesion: LIVER: CARCINOMA): active; positive | carcinogen call (Species: FISH, Strain/Sex: SHEEPSHEAD MINNOW/MALE, FEMALE, Route: IMMERSION, Dose: 0, 2, 30, 200 PPB APPROXIMATE CONCENTRATIONS ADMINISTERED 1/WK FOR 6 OR 24 HR FOR 1 OR 2 WK (STUDY DURATION: 39 WK), Dose: 0, 2, 30): inactive; negative | carcinogen call (Species: HAMSTER, Route: GAVAGE, Tumor Site: Type of Lesion: FORESTOMACH: PAPILLOMA, CARCINOMA): active; positive | carcinogen call (Species: HAMSTER, Route: INTRATRACHEAL, Tumor Site: Type of Lesion: LUNG): active; positive | carcinogen call (Species: HAMSTER, Route: ORAL, Dose: 500 PPM IN DIET 4 D/WK FOR UP TO 14 MO, Tumor Site: Type of Lesion: ESOPHAGUS, FORESTOMACH, INTESTINES, Tumor Site: Type of Lesion: ESOPHAGUS, FORESTOMACH, INTESTINES): active; positive | carcinogen call (Species: HAMSTER, Route: SUBCUTANEOUS, Dose: 2.5 MG, 3 MO, Tumor Site: Type of Lesion: INJECTION SITE: SARCOMA): active; positive | carcinogen call (Species: HAMSTER, Route: SUBCUTANEOUS, Tumor Site: Type of Lesion: INJECTION SITE: SARCOMA): active; positive | carcinogen call (Species: HAMSTER, Strain/Sex: MALE,FEMALE, Route: INTRATRACHEAL, Dose: 0.25-2 MG, 1/WK FOR 30 WK, Tumor Site: Type of Lesion: RESPIRATORY TRACT): active; positive | carcinogen call (Species: HAMSTER, Strain/Sex: SYRIAN/FEMALE, Route: INTRATRACHEAL, Dose: 0, 1 MG IN 0.1 ML PHOSPHATE BUFFER 15/WK FOR 4 MO (STUDY DURATION: 443 D), Tumor Site: Type of Lesion: TRACHEA: PAPILLOMA OR CARCINOMA): active; positive | carcinogen call (Species: HAMSTER, Strain/Sex: SYRIAN/MALE,FEMALE, Route: SUBCUTANEOUS, Dose: 0.0005-80 MG, 10 DOSES, Tumor Site: Type of Lesion: INJECTION SITE: SARCOMA): active; positive | carcinogen call (Species: HAMSTER, Strain/Sex: SYRIAN/MALE, Route: GAVAGE, Dose: 2-5 MG 2/WK FOR 1-11 MO, Tumor Site: Type of Lesion: STOMACH: CARCINOMA, PAPILLOMA): active; positive | carcinogen call (Species: MONKEY, Route: INTRATRACHEAL, Dose: 3-15 MG, 1/WK, Tumor Site: Type of Lesion: LUNG: SQUAMOUS CARCINOMA): active; positive | carcinogen call (Species: MONKEY, Strain/Sex: TUPAIA GLIS/MALE,FEMALE, Route: SUBCUTANEOUS, Dose: 10 MG, SINGLE DOSE, Tumor Site: Type of Lesion: INJECTION SITE: SARCOMA): active; positive | carcinogen call (Species: MOUSE, Route: SUBCUTANEOUS, Tumor Site: Type of Lesion: INJECTION SITE: SARCOMA): active; positive | carcinogen call (Species: MOUSE, Strain/Sex: A/J/MALE, Route: INTRAPERITONEAL, Dose: 0, 10, 100 MG/KG BW IN TRICAPRYLIN ONCE AT 4-5 WK OF AGE (STUDY DURATION: 7-8 MO), Dose: 0, 10, 100 MG/KG BW IN TRICAPRYLIN ONCE AT 4-5 WK OF AGE (STUDY DURATION: 7-8 MO), Tumor Site: Type of Lesion: LUNG: TUMOR): active; positive | carcinogen call (Species: MOUSE, Strain/Sex: B6C3F1/FEMALE, Route: ORAL, Dose: 0, 5, 25, 100 PPM IN DIET FOR 2 YR (STUDY DURATION: 2 YR), Dose: 0, 5, 25, 100 PPM IN DIET FOR 2 YR (STUDY DURATION: 2 YR), Tumor Site: Type of Lesion: FORESTOMACH: PAPILLOMA OR CARCINOMA, ESOPHAGUS: PAPILLOMA OR CARCINOMA, TONGUE: PAPILLOMA OR CARCINOMA, Tumor Site: Type of Lesion: FORESTOMACH: PAPILLOMA OR CARCINOMA, ESOPHAGUS: PAPILLOMA OR CARCINOMA, TONGUE: PAPILLOMA OR CARCINOMA): active; positive | carcinogen call (Species: MOUSE, Strain/Sex: B6C3F1/MALE, Route: INTRAPERITONEAL, Dose: 0, 0.005, 0.015 UMOL/G ONCE AT 12 DAYS OF AGE (STUDY DURATION: 10 MO), Dose: 0, 0.005, 0.015 UMOL/G ONCE AT 12 DAYS OF AGE (STUDY DURATION: 10 MO), Tumor Site: Type of Lesion: LIVER: HEPATOMA): active; positive | carcinogen call (Species: MOUSE, Strain/Sex: B6C3F1/MALE, Route: INTRAPERITONEAL, Dose: 0, 125, 250, 375 UG ADMINISTERED TO 15-DAY OLD MICE ONCE (STUDY DURATION: 52 WK), Dose: 0, 125, 250, 375 UG ADMINISTERED TO 15-DAY OLD MICE ONCE (STUDY DURATION: 52 WK), Tumor Site: Type of Lesion: LIVER: TUMOR): active; positive
